Measured values: patent US7355042B2, “Treatment of CNS disorders using CNS target modulators” (Hypnion, Inc., priority 2001, dated 2008)
Counter-ions that a name gives are not always drawn. Marks after values point to notes of the source that are not given here.

Legend:
[1] = test system: M3 receptor from guinea pig ileum membranes; conditions: read-out: Ki of reference compounds, M3 binding assay; cited from earlier work
[2] = biological target: T1, human recombinant M1 muscarinic receptor expressed in CHO cells (Homo sapiens, UniProt P11229); conditions: read-out: Ki of reference compounds, M1 binding assay; cited from earlier work
T1 construct: expressed in transfected cells; host or cells: CHO cells
T1 sequence (P11229 1-460): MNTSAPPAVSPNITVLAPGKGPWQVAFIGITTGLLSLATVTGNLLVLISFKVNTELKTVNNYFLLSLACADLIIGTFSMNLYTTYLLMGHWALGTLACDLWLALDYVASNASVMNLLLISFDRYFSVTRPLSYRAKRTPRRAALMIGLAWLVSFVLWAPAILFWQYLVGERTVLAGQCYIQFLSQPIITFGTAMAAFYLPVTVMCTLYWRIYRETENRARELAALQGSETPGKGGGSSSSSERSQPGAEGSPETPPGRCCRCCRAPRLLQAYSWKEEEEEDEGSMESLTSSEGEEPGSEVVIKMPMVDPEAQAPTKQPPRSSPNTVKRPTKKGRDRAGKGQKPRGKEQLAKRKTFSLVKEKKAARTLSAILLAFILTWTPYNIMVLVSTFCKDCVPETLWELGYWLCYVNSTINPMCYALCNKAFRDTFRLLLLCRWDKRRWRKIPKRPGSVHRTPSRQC

[3] = biological target: T2, M2 receptor from rat cardiac membranes (Rattus norvegicus, UniProt P10980); conditions: read-out: Ki of reference compounds, M2 binding assay; cited from earlier work
T2 construct: the M2 receptor was from rat cardiac membranes; from tissue; host or cells: rat cardiac membranes
T2 sequence (P10980 1-466): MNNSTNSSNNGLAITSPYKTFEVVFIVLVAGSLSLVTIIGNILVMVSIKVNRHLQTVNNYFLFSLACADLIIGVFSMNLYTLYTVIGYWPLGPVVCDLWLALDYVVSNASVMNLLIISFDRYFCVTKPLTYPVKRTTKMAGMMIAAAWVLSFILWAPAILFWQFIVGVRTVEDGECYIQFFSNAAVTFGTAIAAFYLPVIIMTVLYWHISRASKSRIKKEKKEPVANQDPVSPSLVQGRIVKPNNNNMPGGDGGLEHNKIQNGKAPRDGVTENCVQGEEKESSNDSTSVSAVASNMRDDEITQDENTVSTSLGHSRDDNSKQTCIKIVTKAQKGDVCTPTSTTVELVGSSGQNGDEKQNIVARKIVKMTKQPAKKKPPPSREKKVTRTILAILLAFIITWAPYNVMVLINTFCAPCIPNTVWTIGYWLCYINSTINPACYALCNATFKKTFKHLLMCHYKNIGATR

[4] = test system: male Wistar rats; test: Sleep-wakefulness, locomotor activity and body temperature monitoring (SCORE-2000); format: in vivo, rat; conditions: 30 mg/kg PO at CT-18
[5] = biological target: cloned hERG channels expressed in HEK293 cells (Homo sapiens, UniProt Q12809); test: hERG block comparative study, whole cell recording; conditions: table title 1.0E−6
Sequence of cloned hERG channels expressed in HEK293 cells (Q12809 whole entry): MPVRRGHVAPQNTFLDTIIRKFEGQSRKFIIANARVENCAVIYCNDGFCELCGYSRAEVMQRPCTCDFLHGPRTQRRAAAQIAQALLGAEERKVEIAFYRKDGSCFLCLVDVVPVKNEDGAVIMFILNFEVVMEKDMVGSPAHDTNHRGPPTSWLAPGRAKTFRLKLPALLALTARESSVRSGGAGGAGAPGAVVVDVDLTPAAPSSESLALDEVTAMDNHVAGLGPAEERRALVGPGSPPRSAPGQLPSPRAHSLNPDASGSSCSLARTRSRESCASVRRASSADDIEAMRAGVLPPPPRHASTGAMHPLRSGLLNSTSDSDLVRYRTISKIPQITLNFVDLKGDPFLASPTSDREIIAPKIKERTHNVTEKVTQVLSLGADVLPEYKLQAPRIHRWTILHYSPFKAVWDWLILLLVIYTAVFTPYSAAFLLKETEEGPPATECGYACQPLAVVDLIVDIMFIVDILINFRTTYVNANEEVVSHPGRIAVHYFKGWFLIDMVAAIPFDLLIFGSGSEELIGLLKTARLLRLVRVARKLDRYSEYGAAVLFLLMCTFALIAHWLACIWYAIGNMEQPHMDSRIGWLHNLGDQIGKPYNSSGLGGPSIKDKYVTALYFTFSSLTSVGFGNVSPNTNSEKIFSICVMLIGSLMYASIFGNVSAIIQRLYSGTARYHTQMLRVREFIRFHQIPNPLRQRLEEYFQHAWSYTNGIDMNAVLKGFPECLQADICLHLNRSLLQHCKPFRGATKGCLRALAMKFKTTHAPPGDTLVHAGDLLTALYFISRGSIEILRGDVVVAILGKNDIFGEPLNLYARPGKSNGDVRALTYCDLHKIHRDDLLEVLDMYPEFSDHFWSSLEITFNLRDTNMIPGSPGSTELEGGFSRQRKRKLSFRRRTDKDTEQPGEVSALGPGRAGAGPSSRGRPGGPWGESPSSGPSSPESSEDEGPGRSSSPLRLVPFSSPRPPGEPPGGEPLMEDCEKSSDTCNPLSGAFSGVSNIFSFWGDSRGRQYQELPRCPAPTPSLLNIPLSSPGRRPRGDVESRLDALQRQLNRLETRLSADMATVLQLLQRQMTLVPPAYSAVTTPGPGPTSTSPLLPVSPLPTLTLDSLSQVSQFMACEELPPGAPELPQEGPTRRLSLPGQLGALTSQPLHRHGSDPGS

[6] = biological target: T1, human recombinant M1 muscarinic receptor expressed in CHO cells; test: M1 binding assay (human recombinant), [3H]-scopolamine N-methyl chloride; conditions: 1.0E−6
[7] = biological target: Norepinephrine Transporter (Homo sapiens, UniProt P23975); test: Receptor selectivity binding comparison: Norepinephrine Transporter; conditions: 1.0E−6
Sequence of Norepinephrine Transporter (P23975 whole entry, species assumed): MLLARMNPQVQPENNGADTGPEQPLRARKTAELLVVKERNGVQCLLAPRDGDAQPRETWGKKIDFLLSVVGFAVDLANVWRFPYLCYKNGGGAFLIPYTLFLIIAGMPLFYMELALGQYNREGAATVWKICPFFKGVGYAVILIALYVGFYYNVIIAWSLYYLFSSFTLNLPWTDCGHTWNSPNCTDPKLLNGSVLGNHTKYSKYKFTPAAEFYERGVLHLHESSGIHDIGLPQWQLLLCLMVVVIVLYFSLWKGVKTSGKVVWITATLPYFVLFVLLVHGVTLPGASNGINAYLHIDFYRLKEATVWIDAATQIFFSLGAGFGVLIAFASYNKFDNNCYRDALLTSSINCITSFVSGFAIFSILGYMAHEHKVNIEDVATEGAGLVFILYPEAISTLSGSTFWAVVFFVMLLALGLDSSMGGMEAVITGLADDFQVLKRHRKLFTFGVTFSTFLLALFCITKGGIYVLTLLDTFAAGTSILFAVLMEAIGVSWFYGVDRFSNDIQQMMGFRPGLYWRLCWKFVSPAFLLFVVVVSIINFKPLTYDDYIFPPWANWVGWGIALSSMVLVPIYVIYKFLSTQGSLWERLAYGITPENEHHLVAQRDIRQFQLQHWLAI

[8] = biological target: Histamine, H2 (Homo sapiens, UniProt P25021); test: Receptor selectivity binding comparison: Histamine H2; conditions: 1.0E−6
Sequence of Histamine, H2 (P25021 whole entry): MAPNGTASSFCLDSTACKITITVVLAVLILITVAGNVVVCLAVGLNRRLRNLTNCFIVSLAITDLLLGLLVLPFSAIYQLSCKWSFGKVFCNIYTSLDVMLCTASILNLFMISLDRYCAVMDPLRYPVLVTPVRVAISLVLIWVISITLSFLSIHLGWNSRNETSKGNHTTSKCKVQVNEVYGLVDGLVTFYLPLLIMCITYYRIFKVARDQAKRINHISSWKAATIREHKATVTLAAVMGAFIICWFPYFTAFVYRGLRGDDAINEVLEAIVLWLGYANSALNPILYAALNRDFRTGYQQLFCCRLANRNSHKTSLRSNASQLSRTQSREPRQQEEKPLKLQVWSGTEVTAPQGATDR

[9] = biological target: T3, human recombinant M2 muscarinic receptor expressed in CHO cells (Homo sapiens, UniProt P08172); test: M2 binding assay (human recombinant); conditions: 1.0E−6
T3 construct: expressed in transfected cells; host or cells: CHO cells
T3 sequence (P08172 1-466): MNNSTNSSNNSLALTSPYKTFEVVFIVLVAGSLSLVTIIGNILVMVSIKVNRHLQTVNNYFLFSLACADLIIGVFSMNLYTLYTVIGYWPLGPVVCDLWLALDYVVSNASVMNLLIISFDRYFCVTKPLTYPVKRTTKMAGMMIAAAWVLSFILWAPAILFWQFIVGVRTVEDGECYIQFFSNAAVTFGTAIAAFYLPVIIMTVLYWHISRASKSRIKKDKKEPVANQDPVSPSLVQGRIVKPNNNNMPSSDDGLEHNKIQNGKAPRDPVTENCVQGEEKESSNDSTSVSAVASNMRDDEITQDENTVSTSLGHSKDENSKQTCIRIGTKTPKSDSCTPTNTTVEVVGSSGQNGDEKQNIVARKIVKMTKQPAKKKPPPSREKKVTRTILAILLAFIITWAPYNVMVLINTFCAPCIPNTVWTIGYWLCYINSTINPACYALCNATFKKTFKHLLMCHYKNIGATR

C[N+]1(C)CCC(OC(=O)C(c2ccccc2)c2ccccc2)CC1 [4-DAMP methiodide]
Ki [1]: 0.0375 µM
Ki [2]: 0.00027 µM

CCN(CC)CC1CCCCN1CC(=O)N1c2ccccc2C(=O)Nc2cccnc21 (stereo not drawn) [AF-DX 116]
Ki [3]: 0.063 µM

O=C(O)CCN1CCC(=C2c3ccccc3COc3ccccc32)CC1 [Compound 8a]
Average Bout-Length [4]: 12.2 min
Maximum Bout Length [4]: 28.9 min
NREM Accum. [4]: 65.8 min
NREM Peak (%/hr) [4]: 75.5 %/hr
Onset [4]: 65 min
Percent Inhibition, HERG [5]: 4%
Percent Inhibition, Muscarinic, M1 (Human Recombinant) [6]: 3.3%
Percent Inhibition, Norepinephrine Transporter [7]: −3.9%
Percent Inhibition, Histamine, H2 [8]: 33.4%

CN(C)CCC=C1c2ccccc2COc2ccccc21 [Doxepin, doxepin HCl, reference compound]
Percent Inhibition, HERG [5]: 23%**
Percent Inhibition, Muscarinic, M2 (Human Recombinant) [9]: 74.0%
Percent Inhibition, Histamine, H2 [8]: 74.7%
